The subject of data set [1] is adult male Long Evans rats. Nature of the data set: Auditory fear conditioning after repeated intra-BLA infusions of ghrelin receptor agonist. It counts as in vivo, rat. Conditions: intra-BLA infusion daily for five days. As to the method:
Cannulae Implants. Rats were anesthetized with a cocktail of 10 mg/kg acepromazine, […], and 100 mg/kg ketamine (1 ml/kg; i.p.). Rats were mounted into a dual arm stereotaxic frame (Kopf Instruments; Tujunga, Calif.). The rats were then bilaterally implanted with 23-gauge stainless steel guide cannulae aimed 1 mm above the lateral amygdala: A/P −2.0, M/L+/−5.3, D/V −5.4, relative to brain surface and bregma (45). The cannulae were secured by the placement of three jeweler screws in the skull and dental acrylic. Dummy cannulae extending 1 mm past the tip of the guide cannulae were placed into the guide cannula after surgery and changed every other day. Rats received 0.03 mg/kg of Buprenex (1 ml/kg; s.c.) as post-operative pain management every 12 h for at least 24 h and up to 3 days. All rats recovered for a minimum of 5 days before experimentation commenced.
Drug Infusion. For intra-cranial infusions, rats were placed in 5-gallon buckets containing bedding. The dummy cannulae were removed and injectors (30G stainless steel cannulae; extending 1 mm beyond the cannulae end) were inserted. The injectors were attached to Hamilton syringes (10 ul; Hamilton Co., Reno, Nev.) via polyethylene tubing, and the syringes were mounted in a Harvard syringe pump (Harvard Apparatus; Holliston, Mass.). Infusions were given at a rate of 0.1 ul/m for 5 m for a total volume of 0.5 ul/side, with 1 m for diffusion, before the injectors were removed and new dummy cannulae were inserted.
(§1) Pavlovian Fear Conditioning.
Fear memory requires plasticity in numerous brain regions but the basolateral complex of the amygdala (BLA) is particularly important for both formation and storage of learned fear.

The conditions of data set [2]: cited from earlier work; for crossing of the blood-brain barrier: in vivo.
Data set [3] deals with corticosterone. Kind of data set: Plasma corticosterone by ELISA in stressed rats given DLys3. It counts as in vivo, rat. Conditions: stressed animals, tail bleeds in final 30 m of final stress session. As to the method: Rats received either daily handling (NS) or immobilization stress (STR). Each day, a systemic injection of either Dlys3-GHRP-6 (Dlys3), an antagonist of GHSR-1a, or saline (VEH) was administered within 30 m of handling or stress initiation. (a) Animals received auditory fear conditioning 24 h after the last stress or handling session. […] (c) In a subset of animals in the STR group, tail bleeds were performed during the final 30 m of the final stress session and plasma corticosterone levels were measured using ELISA. All data are mean±s.e.m. * p<0.05, ˜p<0.10 in planned comparisons.
Hormone Assays. Corticosterone, acylated ghrelin, growth hormone and CRF levels were determined using commercial ELISA kits. For corticosterone, non-acidified plasma was diluted 1:25 in assay buffer 15 (Enzo Life Sciences; Farmingdale, N.Y.). For acylated ghrelin, the acidified sample was used for the active ghrelin ELISA (Millipore; Billerica, Mass.) and processed according to the manufacturer's protocol. […] For growth hormone, brain tissue was homogenized 1:6 in lysis buffer and was assayed as per manufacturer's protocol (Millipore; Billerica, Mass.). For CRF, brain tissue collected by micro-dissection was homogenized 1:30 w/v in lysis buffer and assayed per manufacturer's protocol (Kamiya Biomedical Company, Seattle, Wash.).

In data set [4] the target is GHSR1a (Homo sapiens, UniProt Q92847). Conditions: Tocris Bioscience literature; read-out: IC50 as inhibitor of GHSR1a; cited from earlier work.
Chain of GHSR1a (Q92847 whole entry): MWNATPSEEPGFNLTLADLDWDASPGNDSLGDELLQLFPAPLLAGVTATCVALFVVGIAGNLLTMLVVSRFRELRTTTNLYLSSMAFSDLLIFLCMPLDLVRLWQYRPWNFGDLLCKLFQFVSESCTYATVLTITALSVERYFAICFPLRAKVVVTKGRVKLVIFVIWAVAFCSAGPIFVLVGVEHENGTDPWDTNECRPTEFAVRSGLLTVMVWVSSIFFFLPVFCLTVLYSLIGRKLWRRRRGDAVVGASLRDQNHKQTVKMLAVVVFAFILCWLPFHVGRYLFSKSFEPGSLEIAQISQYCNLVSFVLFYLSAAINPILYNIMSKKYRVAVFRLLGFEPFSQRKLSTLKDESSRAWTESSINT
Data set [5] concerns the target melanocortin receptors. Particulars: cited from earlier work.
Data set [6] has as its system adult male Long Evans rats. Kind of data set: Chronic immobilization stress followed by auditory fear conditioning, ghrelin receptor blockade during stress. Particulars: for long-term fear memory in stressed rats (stress-enhanced fear): daily systemic injection at start of immobilization stress, 4 h/d 14 d.
Description: Drug Preparation. For systemic drug delivery, rats were injected with 1 ml/kg (i.p.) of the appropriate solution. All drugs were solubilized in 0.9% saline (vehicle) such that injection volumes remained constant for each experiment. […] D-Lys3-GHRP-6 (Tocris Biosciences; Minneapolis, Minn.) was diluted to 2.74 ug/ml in vehicle. […] D-Lys3-GHRP-6 was injected within 30 m of the start of immobilization stress or following handling.
Immobilization Stress. Immobilization stress was administered 4 h per day for 1-14 consecutive days, depending on the experiment. Animals were placed in Decapicone plastic bags (Braintree Scientific; Braintree, Mass.), which were secured at the tail. Stress occurred in a lab room used for no other procedures. All stress sessions were performed between LOAM and 4 PM. Unstressed control rats were handled daily for 30 s. For further parallel control parameters, food was removed from the unstressed rats daily for the same 4 h period in which stressed animals were immobilized and, therefore, without food.
Pavlovian Fear Conditioning. Fear conditioning experiments were conducted in a modified chamber (MED Associates; St. Albans, Vt.) housed in a sound-attenuated cubicle. The animals were placed in individual chambers and infrared video of each session was recorded. Each experiment used auditory fear conditioning wherein rats received 3-5 tone (2 kHz, 85 dB, 10-16s)-footshock (1-2s, 0.4-0.7 mA) pairings in a unique context (metal shock grid floors, chamber fan on, 0.3% PineSol odor, house and room lights on). Animals were allowed 2-3 m to habituate to the chamber before tone-footshock pairings were given at intervals of 1-4 m. Fear memory was tested 24-72 h later by placing the animals in a novel context (white Plexiglas plastic floors, curved Plexiglas wall inserts, fans off, 1% acetic acid odor, house and room lights off). One to 5 m after placement in the novel context, fear to the tone was assessed either by presenting a continuous tone (2 kHz, 85 dB, 8 minutes) or several discrete tones (15 10-16s tones with 1-4 m ISI). Freezing was measured using commercial software (VideoFreeze, MedAssociates, St. Albans, Vt.).
Statistics. For each fear memory session, conditional freezing was assessed as a percentage of time spent freezing, a probability estimate that is amenable to analysis with parametric statistics. These probability estimates of freezing, along with other measures, were analyzed using ANOVA. Post hoc comparisons in the form of Fisher's PLSD tests were performed after a significant omnibus F-ratio (p<0.05). […] All data where p>0.10 are identified as not significant (ns).
To determine whether ghrelin signaling is necessary for stress-related enhancement of fear memory, ghrelin receptor signaling was blocked during repeated stress sessions. […] Twenty-four hours following the final stress or handling session, auditory fear conditioning was administered and fear to the tone was assessed in a subsequent session.
Data set [7] relates to adult male Long Evans rats. Kind of data set: Auditory Pavlovian fear conditioning after systemic ghrelin receptor agonist injections in nonstressed rats. It counts as in vivo, rat. Particulars: for fear memory after a single injection: 1 day of injection, conditioning 24 h later; for long-term fear memory (conditional freezing to the tone): conditioning 24 h after last injection, test 48 h later. As for the experimental part: Subjects. All experiments used adult male Long Evans rats (250-350 g, Taconic, Germantown, N.Y.), housed individually (68-72° F.; 12-h light-dark cycle, 7 AM lights on). Food and water (or 0.9% saline for adrenalectomy experiments) was provided ad libitum. Stressed and unstressed animals were housed in separate cubicles. All procedures were in accordance with the US National Institutes of Health (NIH) Guide for the Care and Use of Laboratory Animals and were approved by the MIT Institutional Animal Care and Use Committee and the Animal Care and Use Review Office of the USAMRMC.
as §1
To determine whether increased activation of the ghrelin receptor is sufficient for enhancement of fear memory, experiments were conducted using pharmacological agonism of GHSR-1a in non-stressed animals. […] MK-0677 (MK: 5d) or saline (VEH: 5d) was systemically administered once a day for five consecutive days in nonstressed rats to determine whether repeated ghrelin receptor agonism in the absence of stress is sufficient to increase fear learning and whether HPA hormones may play a role in this effect. […] One subset of animals was administered auditory fear conditioning 24 h after the last injection.

The subject of data set [8] is adult male Long Evans rats. Kind of data set: Elevated plus maze after systemic MK-0677. It counts as in vivo, rat. Conditions: 5 d systemic injections, single 8 minute session 24 h after last injection. As to the method:
Rats received a daily systemic injection of MK-0677 (MK: 5d), an agonist of GHSR-1a, or vehicle (VEH: 5d) for five days at the endogenous ghrelin signaling nadir. Spontaneous freezing (a) and locomotion (b) were assessed in a novel context 24 h after the last injection. A separate group was assessed on the elevated plus maze in a single 8 minute session 24 h after the last injection. Total arm entries (c) and open arm time (d) were measured to assess exploratory behavior and innate anxiety, respectively. (e) Animals received Pavlovian fear conditioning 24 h before beginning daily handling injections of MK-0677 (Post FC MK: 5d) or vehicle (Post FC VEH: 5d) for 5d. […] All data are mean±s.e.m.
Elevated Plus Maze. Rats were tested for anxiety using an elevated plus maze (Hamilton Kinder; Poway, Calif.). The maze had two open arms (51 cm×12 cm each) and was located in a moderately lit room. Open arms consisted of black Plexiglas floors and no walls. The closed arms had black Plexiglas walls 40 cm high. […] Automated software (Motor Monitor 4.14) recorded the second by second movements of the animals while the experimenter made observations in an obscured corner. Each session lasted 8 m and both the observer and the software recorded the latency to exit the first arm and the number of entries into the open and closed arms. Additionally, the software recorded time spent in the each region of the maze. […]

The test system of data set [9] is CRF. Nature of the data set: Brain CRF levels by ELISA after systemic MK-0677. It counts as in vivo, rat. Particulars: 5 d systemic injections, 24 h after final injection. As for the experimental part:
Rats received daily systemic injections of MK-0677 (MK: 5d), a GHSR-1a agonist, or saline (VEH: 5d) for five days at the endogenous ghrelin signaling nadir. (b) One group underwent auditory fear conditioning 24 h following the final injection. Fear acquisition was assessed by monitoring freezing levels. (c) Conditional freezing to the tone was assessed in a novel context 48 h following fear conditioning. A separate group was sacrificed 24 h following the final injection and microdissections of hypothalamus and amygdala performed. Brain CRF levels were measured using ELISA (d) hypothalamus, (e), basolateral complex of the amygdala). * p<0.05, ** p<0.01, ˜p<0.10 in planned comparisons.
Hormone Assays. Corticosterone, acylated ghrelin, growth hormone and CRF levels were determined using commercial ELISA kits. For corticosterone, non-acidified plasma was diluted 1:25 in assay buffer 15 (Enzo Life Sciences; Farmingdale, N.Y.). For acylated ghrelin, the acidified sample was used for the active ghrelin ELISA (Millipore; Billerica, Mass.) and processed according to the manufacturer's protocol. […] For growth hormone, brain tissue was homogenized 1:6 in lysis buffer and was assayed as per manufacturer's protocol (Millipore; Billerica, Mass.). […]
(In general: In an ELISA, binding on a coated surface is turned into a signal by an enzyme label.)

For data set [10], the system named is growth hormone release. Particulars: dose of 0.5 mg/ml; cited from earlier work.
Where [11] appears, read: systemic injection once a day for 5 days, nonstressed rats.

Like-named read-outs stand apart in the source and are kept apart here. Non-standard residues stand in square brackets, D forms with d. No end group written: not given here.

Data on three molecules can be found in patent US9821042B2, “Use of antagonists of ghrelin or ghrelin receptor to prevent or treat stress-sensitive psychiatric illness” (Massachusetts Institute of Technology, priority 2012, dated 2017).

Consider “acylated ghrelin: acylated (bioactive) form of the peptide hormone ghrelin, infused into the BLA”, for which the long-term fear memory entry in data set [1] (listed as bioactive ghrelin) is reported as “replicated”. In [2] (ref 29), the half-life is recorded as about 30 m.

In general, IC50 refers to the concentration that gives 50% inhibition. The Ki is the dissociation constant of the complex between target and ligand, obtained from inhibition or displacement. H[dW][dK]W[dF]K-NH2 [D-Lys3-GHRP-6]: the “stress-induced HPA activation as corticosterone secretion” value in data set [3] is “did not blunt”. Further, the half-inhibitory concentration (IC50) in data set [4] is 0.9 µM. Further, the Ki in data set [5] was 26 to 120 µM. Besides, the “crossing of the blood-brain barrier” value in data set [2] was “crosses the blood brain barrier”; in data set [2] (listed as DLys3), “crosses the blood-brain barrier”. For the same molecule, the “long-term fear memory in stressed rats (stress-enhanced fear)” value is recorded as “completely reversed stress-enhanced fear” in [6] (listed as DLys3) and “sufficient to prevent stress-related enhancement of fear memory” in [6] (listed as Dlys-3). Also, the “stress enhancement of fear acquisition” value in data set [6] (daily systemic injection during immobilization stress) was “not seen”. Moreover, the “fear memory in nonstressed controls” value in data set [6] (daily systemic injection with daily handling) is on record as “no effect”.

For the molecule `CC(C)(N)C(=O)N[C@H](COCc1ccccc1)C(=O)N1CCC2(CC1)CN(S(C)(=O)=O)c1ccccc12` [MK-0677], the “fear memory after a single injection” value in data set [7] is “trend towards impairment”. Moreover, the “fear memory after a single injection” value in [7] (listed as MK677) is reported as “no effect”. Moreover, the “expression of previously acquired auditory fear memory” value in [7] (conditioning 24 h before 5 d of injections, test 24 h after last injection) was “not affected”. Further, in [7] (daily injections for 3 days), the “fear memory after 3 days of injections” value is given as “no effect”. Further, in [7] (single injection, 14 d in vivarium before conditioning), the “fear memory after a single injection followed by 14 d delay” value was “not sufficient to enhance fear”. For the same molecule, in [7] (setting [11]), the “fear acquisition during conditioning (freezing)” value is on record as “did not alter” and the “long-term fear memory (conditional freezing to the tone)” value is “significantly enhanced”. Further, in [7] (systemic injection once a day for 5 days, nonstressed rats, listed as MK677), the “long-term fear memory (conditional freezing to the tone)” value is “increased fear memory”. Also, in [8], the “innate anxiety (open arm time)” value is recorded as “not altered”. For the same molecule, in data set [9], the “amygdalar CRF level” value is listed as “trend for repeated ghrelin receptor activation to decrease” and the “hypothalamic CRF level” value is reported as “no change”. In addition, in data set [1], the “freezing during fear conditioning” value is “not altered” and the long-term fear memory result is recorded as “significantly enhanced”. For the same molecule, the long-term fear memory result in data set [1] (listed as MK677) is on record as “sufficient to enhance fear memory”. For the same molecule, the “crossing of the blood-brain barrier” value in [2] is listed as “readily crosses the blood-brain barrier”. In addition, the half-life in data set [2] (ref 30) was 5 to 6 h. The half-life result in data set [2] (refs 47, 48) is given as “over six”. Also, in data set [10], the growth hormone release entry was “significant and prolonged increases”; the tolerability result is “well-tolerated”.
